{
  "source": "patent US9598414B2",
  "about": "“Substituted benzo[5,6]azepino[3,2,1-hi]pyrido[4,3-b]indoles and substituted benzo[6,7][1,4]oxazepino[2,3,4-hi]pyrido[4,3-b]indoles for treating CNS disorders” (Daya Drug Discoveries, Inc., priority 2013, dated 2017)",
  "key": {"Dopamine transporter": {"target": "Dopamine transporter (Homo sapiens, UniProt Q01959)", "sequence (Q01959 whole entry)": "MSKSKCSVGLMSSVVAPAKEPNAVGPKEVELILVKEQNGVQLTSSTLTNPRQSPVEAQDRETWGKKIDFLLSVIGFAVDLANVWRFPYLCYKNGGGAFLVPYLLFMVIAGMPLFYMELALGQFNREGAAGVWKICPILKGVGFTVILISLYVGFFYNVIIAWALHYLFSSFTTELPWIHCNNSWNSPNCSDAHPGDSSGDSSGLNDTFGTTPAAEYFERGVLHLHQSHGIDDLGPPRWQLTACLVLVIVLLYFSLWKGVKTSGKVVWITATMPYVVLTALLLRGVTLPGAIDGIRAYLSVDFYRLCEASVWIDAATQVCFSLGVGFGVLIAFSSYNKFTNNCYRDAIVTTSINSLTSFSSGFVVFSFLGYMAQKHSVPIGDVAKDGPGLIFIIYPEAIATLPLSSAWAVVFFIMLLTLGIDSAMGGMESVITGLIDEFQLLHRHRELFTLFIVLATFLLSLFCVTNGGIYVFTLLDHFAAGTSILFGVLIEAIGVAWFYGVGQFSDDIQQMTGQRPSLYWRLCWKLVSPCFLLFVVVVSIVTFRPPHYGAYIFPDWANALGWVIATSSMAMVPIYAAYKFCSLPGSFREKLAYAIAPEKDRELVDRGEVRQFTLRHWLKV", "experiment": "Receptor binding, dopamine transporter", "conditions": "Transporters: Dopamine"}, "Serotonin 5-HT1B": {"target": "Serotonin 5-HT1B (Homo sapiens, UniProt P28222)", "experiment": "Receptor binding, 5-HT1B"}, "α-Adrenergic α2B": {"target": "T1, α-Adrenergic α2B (Homo sapiens, UniProt P18089)", "T1 sequence (P18089 1-450)": "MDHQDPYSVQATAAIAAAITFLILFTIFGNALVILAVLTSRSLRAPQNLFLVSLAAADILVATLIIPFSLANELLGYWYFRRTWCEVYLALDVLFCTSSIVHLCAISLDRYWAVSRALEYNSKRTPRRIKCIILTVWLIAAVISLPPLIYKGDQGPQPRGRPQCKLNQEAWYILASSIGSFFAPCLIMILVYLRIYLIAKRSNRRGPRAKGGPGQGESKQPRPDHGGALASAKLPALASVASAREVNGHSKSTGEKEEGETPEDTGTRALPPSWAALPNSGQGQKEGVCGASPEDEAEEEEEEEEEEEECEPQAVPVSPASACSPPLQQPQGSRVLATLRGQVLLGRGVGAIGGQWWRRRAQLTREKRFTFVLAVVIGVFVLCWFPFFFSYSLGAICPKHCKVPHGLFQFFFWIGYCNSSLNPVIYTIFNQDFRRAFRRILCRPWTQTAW", "experiment": "Receptor binding, α2B"}, "[1]": {"tested_on": "rats with a history of chronic meth self-administration", "experiment": "Reinstatement of meth seeking", "format": "in vivo", "conditions": "10 mg/kg i.p. just before reinstatement session (meth priming 1 mg/kg i.p. and cues), FIG. 3", "experimental": "DDD-024 was initially tested for effects on the reinstatement of meth seeking in a small pilot group of rats with a history of chronic meth self-administration. […] Rats received a vehicle (10% DMSO) or DDD-024 (10 mg/kg) injection (i.p.) just before each reinstatement session, which consisted of a meth priming injection (1 mg/kg, i.p.) and presentation of meth-associated cues (tone and light) upon each lever press."}, "Opioid κ": {"target": "Opioid κ (Homo sapiens, UniProt P41145)", "sequence (P41145 whole entry)": "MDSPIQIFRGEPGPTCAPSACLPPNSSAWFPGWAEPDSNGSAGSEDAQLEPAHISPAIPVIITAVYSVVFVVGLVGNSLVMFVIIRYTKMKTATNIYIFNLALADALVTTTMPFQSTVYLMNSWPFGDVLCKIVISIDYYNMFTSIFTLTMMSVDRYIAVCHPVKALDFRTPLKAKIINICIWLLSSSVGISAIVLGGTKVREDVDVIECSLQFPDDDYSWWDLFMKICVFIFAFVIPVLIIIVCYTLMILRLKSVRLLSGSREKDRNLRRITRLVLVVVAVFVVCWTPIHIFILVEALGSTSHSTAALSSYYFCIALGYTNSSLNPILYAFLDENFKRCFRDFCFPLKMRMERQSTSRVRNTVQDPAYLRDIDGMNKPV", "experiment": "Receptor binding, opioid κ"}, "Muscarinic M5": {"target": "Muscarinic M5 (Homo sapiens, UniProt P08912)", "sequence (P08912 whole entry)": "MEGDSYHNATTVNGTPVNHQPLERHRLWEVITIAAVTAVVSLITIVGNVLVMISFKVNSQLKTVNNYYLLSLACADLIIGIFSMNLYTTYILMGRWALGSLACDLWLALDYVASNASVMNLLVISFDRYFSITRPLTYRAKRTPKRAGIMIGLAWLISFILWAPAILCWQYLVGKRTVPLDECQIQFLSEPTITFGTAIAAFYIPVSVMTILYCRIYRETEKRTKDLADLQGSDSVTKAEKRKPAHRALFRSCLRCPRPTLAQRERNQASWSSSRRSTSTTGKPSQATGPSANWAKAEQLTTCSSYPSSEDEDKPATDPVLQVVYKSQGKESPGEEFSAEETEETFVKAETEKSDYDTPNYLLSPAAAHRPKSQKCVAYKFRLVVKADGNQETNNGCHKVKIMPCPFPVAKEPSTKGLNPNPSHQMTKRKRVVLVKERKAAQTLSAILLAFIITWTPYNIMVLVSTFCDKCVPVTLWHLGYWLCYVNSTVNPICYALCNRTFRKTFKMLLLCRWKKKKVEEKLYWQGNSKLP", "experiment": "Receptor binding, M5"}, "Opioid μ": {"target": "Opioid μ (Homo sapiens, UniProt P35372)", "sequence (P35372 whole entry)": "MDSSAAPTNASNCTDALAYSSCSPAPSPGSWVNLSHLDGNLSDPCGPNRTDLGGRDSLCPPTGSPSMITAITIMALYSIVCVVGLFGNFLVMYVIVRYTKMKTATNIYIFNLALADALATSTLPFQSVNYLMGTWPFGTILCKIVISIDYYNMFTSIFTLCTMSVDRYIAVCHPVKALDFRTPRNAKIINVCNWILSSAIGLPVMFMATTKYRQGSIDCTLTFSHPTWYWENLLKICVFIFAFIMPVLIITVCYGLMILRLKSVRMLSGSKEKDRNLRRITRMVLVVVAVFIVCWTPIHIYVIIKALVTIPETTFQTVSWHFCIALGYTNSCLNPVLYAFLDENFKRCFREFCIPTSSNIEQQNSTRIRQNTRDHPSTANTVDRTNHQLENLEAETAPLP", "experiment": "Receptor binding, opioid μ"}, "Serotonin 5-HT2C": {"target": "T2, Serotonin 5-HT2C (Homo sapiens, UniProt P28335)", "T2 sequence (P28335 33-458)": "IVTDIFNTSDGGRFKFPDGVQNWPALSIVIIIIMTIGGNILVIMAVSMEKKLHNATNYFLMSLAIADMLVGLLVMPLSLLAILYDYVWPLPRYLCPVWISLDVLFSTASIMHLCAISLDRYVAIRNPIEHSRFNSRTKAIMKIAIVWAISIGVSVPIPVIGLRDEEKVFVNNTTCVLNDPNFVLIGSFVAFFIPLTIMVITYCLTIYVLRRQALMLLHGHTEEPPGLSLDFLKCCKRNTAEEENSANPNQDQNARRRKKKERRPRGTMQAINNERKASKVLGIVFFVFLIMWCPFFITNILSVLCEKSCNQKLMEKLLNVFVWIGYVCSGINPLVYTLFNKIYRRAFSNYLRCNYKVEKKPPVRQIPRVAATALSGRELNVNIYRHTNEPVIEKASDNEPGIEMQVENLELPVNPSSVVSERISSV", "experiment": "Receptor binding, 5-HT2C"}, "rats": {"tested_on": "rats", "experiment": "Forced swim test (depression model)", "format": "in vivo", "conditions": "10 mg/kg i.p., 1 hour before test, versus imipramine 10 mg/kg, FIG. 5"}, "Sigma σ2": {"target": "Sigma σ2 (Homo sapiens, UniProt Q5BJF2)", "sequence (Q5BJF2 whole entry)": "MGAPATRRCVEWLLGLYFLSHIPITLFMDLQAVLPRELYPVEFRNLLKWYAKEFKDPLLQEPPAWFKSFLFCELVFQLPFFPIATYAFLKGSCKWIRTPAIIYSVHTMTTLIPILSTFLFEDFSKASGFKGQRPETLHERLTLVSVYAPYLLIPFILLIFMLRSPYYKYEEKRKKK", "experiment": "Receptor binding, σ2"}, "Serotonin 5-HT3": {"target": "Serotonin 5-HT3 (Homo sapiens, UniProt P46098)", "sequence (P46098 24-478)": "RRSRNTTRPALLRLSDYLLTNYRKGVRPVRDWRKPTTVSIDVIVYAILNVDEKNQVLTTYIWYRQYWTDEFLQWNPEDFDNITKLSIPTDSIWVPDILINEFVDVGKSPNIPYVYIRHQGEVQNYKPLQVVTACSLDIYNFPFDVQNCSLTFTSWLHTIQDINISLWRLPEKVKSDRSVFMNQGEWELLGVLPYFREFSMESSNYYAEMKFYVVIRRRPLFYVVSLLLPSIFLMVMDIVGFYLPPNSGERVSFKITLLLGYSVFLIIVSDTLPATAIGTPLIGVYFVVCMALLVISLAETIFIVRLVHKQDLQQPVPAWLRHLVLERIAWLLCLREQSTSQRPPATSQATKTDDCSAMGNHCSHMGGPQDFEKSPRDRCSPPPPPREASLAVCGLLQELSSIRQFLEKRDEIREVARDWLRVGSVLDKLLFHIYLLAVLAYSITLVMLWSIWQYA", "experiment": "Receptor binding, 5-HT3"}, "Muscarinic M1": {"target": "Muscarinic M1 (Homo sapiens, UniProt P11229)", "sequence (P11229 whole entry)": "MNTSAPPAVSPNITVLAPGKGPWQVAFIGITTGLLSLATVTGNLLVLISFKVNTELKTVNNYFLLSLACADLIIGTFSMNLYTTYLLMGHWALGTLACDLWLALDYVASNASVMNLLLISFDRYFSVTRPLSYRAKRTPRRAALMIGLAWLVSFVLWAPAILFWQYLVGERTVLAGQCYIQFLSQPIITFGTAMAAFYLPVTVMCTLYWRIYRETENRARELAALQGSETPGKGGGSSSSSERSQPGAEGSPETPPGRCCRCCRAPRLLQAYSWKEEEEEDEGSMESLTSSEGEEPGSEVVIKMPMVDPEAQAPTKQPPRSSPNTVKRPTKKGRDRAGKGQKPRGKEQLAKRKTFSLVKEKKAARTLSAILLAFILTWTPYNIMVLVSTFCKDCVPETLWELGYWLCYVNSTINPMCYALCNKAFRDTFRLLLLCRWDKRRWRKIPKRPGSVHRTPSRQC", "experiment": "Receptor binding, M1"}, "dopamine receptors": {"tested_on": "dopamine receptors", "experiment": "Receptor binding, dopamine receptors", "conditions": "any of the dopamine receptors, summary of Table 1"}, "α-Adrenergic α1B": {"target": "α-Adrenergic α1B (Homo sapiens, UniProt P35368)", "experiment": "Receptor binding, α1B"}, "Serotonin 5-HT1E": {"target": "Serotonin 5-HT1E (Homo sapiens, UniProt P28566)", "sequence (P28566 whole entry)": "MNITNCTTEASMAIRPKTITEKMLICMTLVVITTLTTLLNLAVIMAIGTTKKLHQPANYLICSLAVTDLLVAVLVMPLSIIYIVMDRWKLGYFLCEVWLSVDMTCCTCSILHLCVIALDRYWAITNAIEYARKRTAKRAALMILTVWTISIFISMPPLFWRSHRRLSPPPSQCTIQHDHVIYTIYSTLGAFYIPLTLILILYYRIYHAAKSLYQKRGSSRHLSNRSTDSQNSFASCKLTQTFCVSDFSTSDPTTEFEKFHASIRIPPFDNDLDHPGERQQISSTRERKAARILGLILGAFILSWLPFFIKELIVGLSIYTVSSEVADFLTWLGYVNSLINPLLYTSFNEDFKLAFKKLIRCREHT", "experiment": "Receptor binding, 5-HT1E"}, "[2]": {"target": "Norepinephrine transporter (Homo sapiens, UniProt P23975)", "sequence (P23975 whole entry)": "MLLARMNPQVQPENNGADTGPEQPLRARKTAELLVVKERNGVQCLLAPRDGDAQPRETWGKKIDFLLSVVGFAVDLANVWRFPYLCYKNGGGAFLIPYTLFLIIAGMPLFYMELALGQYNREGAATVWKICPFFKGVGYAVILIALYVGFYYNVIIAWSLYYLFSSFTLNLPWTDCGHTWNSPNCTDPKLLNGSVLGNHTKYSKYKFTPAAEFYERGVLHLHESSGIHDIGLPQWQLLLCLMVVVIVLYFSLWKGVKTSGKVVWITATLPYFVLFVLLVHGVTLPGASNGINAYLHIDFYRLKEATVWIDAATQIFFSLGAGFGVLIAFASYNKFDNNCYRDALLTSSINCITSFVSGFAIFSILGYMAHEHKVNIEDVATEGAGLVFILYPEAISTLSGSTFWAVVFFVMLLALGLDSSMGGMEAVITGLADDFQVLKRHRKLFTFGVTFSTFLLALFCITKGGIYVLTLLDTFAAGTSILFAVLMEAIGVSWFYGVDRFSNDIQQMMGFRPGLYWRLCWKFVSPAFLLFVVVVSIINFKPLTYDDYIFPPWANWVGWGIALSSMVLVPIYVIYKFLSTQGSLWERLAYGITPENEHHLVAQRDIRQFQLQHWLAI", "experiment": "Receptor binding, norepinephrine transporter", "conditions": "Transporters: Norepinephrine"}, "α-Adrenergic α2A": {"target": "T3, α-Adrenergic α2A (Homo sapiens, UniProt P08913)", "T3 sequence (P08913 1-465)": "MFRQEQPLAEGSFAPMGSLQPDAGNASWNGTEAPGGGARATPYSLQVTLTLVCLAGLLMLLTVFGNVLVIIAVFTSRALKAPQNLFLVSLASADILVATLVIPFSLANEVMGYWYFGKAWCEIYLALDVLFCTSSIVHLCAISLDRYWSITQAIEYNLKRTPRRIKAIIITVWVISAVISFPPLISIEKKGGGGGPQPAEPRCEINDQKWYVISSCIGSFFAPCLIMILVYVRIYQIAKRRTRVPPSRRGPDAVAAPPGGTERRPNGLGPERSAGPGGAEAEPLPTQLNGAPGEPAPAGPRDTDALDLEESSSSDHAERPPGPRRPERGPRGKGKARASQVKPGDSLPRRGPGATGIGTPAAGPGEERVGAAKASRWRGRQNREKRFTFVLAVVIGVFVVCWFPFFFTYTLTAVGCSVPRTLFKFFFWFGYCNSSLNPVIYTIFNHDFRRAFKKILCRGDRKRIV", "experiment": "Receptor binding, α2A"}, "Muscarinic M3": {"target": "Muscarinic M3 (Homo sapiens, UniProt P20309)", "sequence (P20309 whole entry)": "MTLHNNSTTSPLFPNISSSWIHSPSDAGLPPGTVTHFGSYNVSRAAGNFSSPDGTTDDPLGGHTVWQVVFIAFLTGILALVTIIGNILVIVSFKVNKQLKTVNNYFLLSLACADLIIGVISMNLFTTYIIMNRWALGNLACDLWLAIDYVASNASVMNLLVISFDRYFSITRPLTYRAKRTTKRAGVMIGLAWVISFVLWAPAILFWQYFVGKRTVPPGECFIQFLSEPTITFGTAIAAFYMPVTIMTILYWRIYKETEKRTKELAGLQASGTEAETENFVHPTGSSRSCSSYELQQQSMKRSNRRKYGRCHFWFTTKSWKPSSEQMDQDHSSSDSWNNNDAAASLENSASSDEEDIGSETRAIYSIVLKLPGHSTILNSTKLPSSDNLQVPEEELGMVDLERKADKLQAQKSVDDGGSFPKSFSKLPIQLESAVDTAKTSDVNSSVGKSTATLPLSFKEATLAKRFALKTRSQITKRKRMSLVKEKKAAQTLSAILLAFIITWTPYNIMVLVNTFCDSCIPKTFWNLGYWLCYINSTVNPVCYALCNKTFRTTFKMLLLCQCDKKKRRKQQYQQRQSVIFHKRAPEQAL", "experiment": "Receptor binding, M3"}},
  "data": [
    {"smiles": "CN1CCc2c(c3cccc4c3n2Cc2ccccc2O4)C1", "note": "[Compound 13b]", "values": [
      {"measurement": "Ki", "setting": "Dopamine transporter", "value": "> 10", "unit": "µM"},
      {"measurement": "Ki", "setting": "Serotonin 5-HT1B", "value": 0.738, "unit": "µM"},
      {"measurement": "Ki", "setting": "α-Adrenergic α2B", "value": "> 10", "unit": "µM"},
      {"measurement": "number of lever presses (meth seeking behavior)", "setting": "[1]", "value": "significantly reduced"},
      {"measurement": "Ki", "setting": "Opioid κ", "value": "> 10", "unit": "µM"},
      {"measurement": "Ki", "setting": "Muscarinic M5", "value": "> 10", "unit": "µM"},
      {"measurement": "Ki", "setting": "Opioid μ", "value": "> 10", "unit": "µM"},
      {"measurement": "Ki", "setting": "Serotonin 5-HT2C; 5-HT2C", "value": 0.247, "unit": "µM"},
      {"measurement": "binding, in words", "setting": "Serotonin 5-HT2C; HT2c, summary of Table 1", "value": "moderate binding"},
      {"measurement": "antidepressive activity (immobility, forced swim test)", "setting": "rats", "value": "comparable to imipramine"},
      {"measurement": "Ki", "setting": "Sigma σ2; σ2", "value": 1.81, "unit": "µM"},
      {"measurement": "binding, in words", "setting": "Sigma σ2; σ2, text summary of Table 1", "value": "moderate binding"},
      {"measurement": "Ki", "setting": "Serotonin 5-HT3", "value": "> 10", "unit": "µM"},
      {"measurement": "Ki", "setting": "Muscarinic M1", "value": "> 10", "unit": "µM"},
      {"measurement": "binding, in words", "setting": "dopamine receptors", "value": "neither of the two compounds 13a and 13b binds significantly"},
      {"measurement": "Ki", "setting": "α-Adrenergic α1B", "value": "> 10", "unit": "µM"},
      {"measurement": "Ki", "setting": "Serotonin 5-HT1E", "value": "> 10", "unit": "µM"},
      {"measurement": "Ki", "setting": "[2]", "value": 1.95, "unit": "µM"},
      {"measurement": "Ki", "setting": "α-Adrenergic α2A", "value": 1.46, "unit": "µM"},
      {"measurement": "Ki", "setting": "Muscarinic M3", "value": "> 10", "unit": "µM"}
    ]}
  ]
}
